The text below walks through data of patent US20130040952A1 (priority 2011, published 2013).

Each structure is given as a SMILES string.

Common to all, as to assay type: cell-based, recombinant influenza virus in WSN background
Test [1] has as its system Y52H/Y289H double mutation rWSN virus. The note with it: read-out: Anti-rWSN IC50 (μM), NP Y52H/Y289H.
In test [2] the test system is compound 3061-resistant rWSN virus (Y52H mutation at NP).
Test [3] has as its system nucleozin-resistant rWSN virus (Y289H mutation at NP).

For the molecule `O=C(NCCCN1CCOCC1)c1csc(Nc2ccc(Cl)c(Cl)c2)n1` [compound 1], the IC50 in test [1] was determined as 1.8 µM; in test [2] (read-out: Anti-rWSN IC50 (μM), NP Y52H) it was 3.2 µM; in test [3] (read-out: Anti-rWSN IC50 (μM), NP Y289H) it was 4 µM. In addition, the “inhibition of 3061-resistant strain” value in test [2] was “capable of inhibiting”. In addition, the “inhibition of nucleozin-resistant strain” value in test [3] is listed as “capable of inhibiting”.
